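Where inhibition never reached the appropriate level, the endpoint shown equals the highest concentration tested. Otherwise, values were interpolated linearly from a five-concentration, 48-hour dose response in 96-well plates. At the TGI there is no net growth.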
Tests used:
Experiment in all cases: growth of human tumour cells (NCI), 48 h
[1] = test system: 786-0 renal
[2] = test system: A549 NSCLC
[3] = test system: ACHN renal
[4] = test system: BT-549 breast
[5] = test system: CAKI-1 renal
[6] = test system: CCRF-CEM leukemia
[7] = test system: COLO 205 colon
[8] = test system: DU-145 prostate
[9] = test system: EKVX NSCLC
[10] = test system: HCC-2998 colon
[11] = test system: HCT-116 colon
[12] = test system: HCT-15 colon
[13] = test system: HL-60(TB) leukemia
[14] = test system: HOP-62 NSCLC
[15] = test system: HS 578T breast
[16] = test system: HT29 colon
[17] = test system: IGROV1 ovarian
[18] = test system: K-562 leukemia
[19] = test system: KM12 colon
[20] = test system: M14 melanoma
[21] = test system: MALME-3M melanoma
[22] = test system: MCF7 breast
[23] = test system: MDA-MB-231 breast
[24] = test system: MDA-MB-435
[25] = test system: MOLT-4 leukemia
[26] = test system: NCI-H226 lung
[27] = test system: NCI-H23 lung
[28] = test system: NCI-H460 lung
[29] = test system: NCI-H522 lung
[30] = test system: NCI/ADR-RES ovarian
[31] = test system: OVCAR-3 ovarian
[32] = test system: OVCAR-4 ovarian
[33] = test system: OVCAR-5 ovarian
[34] = test system: OVCAR-8 ovarian
[35] = test system: PC-3 prostate
[36] = test system: RPMI-8226 leukemia
[37] = test system: SF-268 CNS
[38] = test system: SF-295 CNS
[39] = test system: SF-539 CNS
[40] = test system: SK-MEL-2 melanoma
[41] = test system: SK-MEL-28 melanoma
[42] = test system: SK-MEL-5 melanoma
[43] = test system: SK-OV-3 ovarian
[44] = test system: SN12C renal
[45] = test system: SNB-19 CNS
[46] = test system: SNB-75 CNS
[47] = test system: SR leukemia
[48] = test system: T-47D breast
[49] = test system: TK-10 renal
[50] = test system: U251 CNS
[51] = test system: UACC-257 melanoma
[52] = test system: UACC-62 melanoma

SMILES: COC(=O)/C=C/N1CC1
- TGI [1]: > 10 µM
- TGI [2]: > 10 µM
- TGI [3]: > 10 µM
- TGI [4]: > 10 µM
- TGI [5]: > 10 µM
- TGI [6]: > 10 µM
- TGI [7]: 9.07 µM
- TGI [8]: > 10 µM
- TGI [9]: > 10 µM
- TGI [10]: > 10 µM
- TGI [11]: > 10 µM
- TGI [12]: > 10 µM
- TGI [13]: > 10 µM
- TGI [14]: > 10 µM
- TGI [15]: > 10 µM
- TGI [16]: > 10 µM
- TGI [17]: 6.15 µM
- TGI [18]: > 10 µM
- TGI [19]: > 10 µM
- TGI [20]: > 10 µM
- TGI [21]: > 10 µM
- TGI [22]: > 10 µM
- TGI [23]: > 10 µM
- TGI [24]: > 10 µM
- TGI [25]: > 10 µM
- TGI [26]: > 10 µM
- TGI [27]: > 10 µM
- TGI [28]: > 10 µM
- TGI [29]: > 10 µM
- TGI [30]: > 10 µM
- TGI [31]: > 10 µM
- TGI [32]: > 10 µM
- TGI [33]: > 10 µM
- TGI [34]: > 10 µM
- TGI [35]: > 10 µM
- TGI [36]: > 10 µM
- TGI [37]: > 10 µM
- TGI [38]: > 10 µM
- TGI [39]: > 10 µM
- TGI [40]: > 10 µM
- TGI [41]: > 10 µM
- TGI [42]: > 10 µM
- TGI [43]: > 10 µM
- TGI [44]: > 10 µM
- TGI [45]: > 10 µM
- TGI [46]: > 10 µM
- TGI [47]: > 10 µM
- TGI [48]: > 10 µM
- TGI [49]: > 10 µM
- TGI [50]: > 10 µM
- TGI [51]: > 10 µM
- TGI [52]: > 10 µM
